Experimental data published in ChEMBL document CHEMBL1201862, “PubChem BioAssay data set” (2004).
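Assay format: 96-well plates, 48-hour exposure. GI50 is the concentration that inhibits growth by half.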 Calls of active or inactive are those of the source. No stated cut-off is given here; in the data, active = GI50 up to about 1.1 µM and inactive = higher.

Legend:
Assay in all cases: NCI-60 cell line screen, 48 h
KM-20L2 = system: KM-20L2
OVCAR-4 = system: OVCAR-4
SF-268 = system: SF-268
K562 = system: K562
CCRF-CEM = system: CCRF-CEM
HCT-116 = system: HCT-116
NCI-H460 = system: NCI-H460
HCT-15 = system: HCT-15
HT-29 = system: HT-29
SN12C = system: SN12C
UACC-257 = system: UACC-257
OVCAR-3 = system: OVCAR-3
SK-MEL-2 = system: SK-MEL-2
OVCAR-5 = system: OVCAR-5
IGROV-1 = system: IGROV-1
SR = system: SR
EKVX = system: EKVX
DU-145 = system: DU-145
Hs-578T = system: Hs-578T
NCI/ADR-RES = system: NCI/ADR-RES

Measured: GI50

O=C(CC1=Nc2nnc(-c3nnc4n3C(=O)C(CC(=O)C3CC3)=N4)n2C1=O)C1CC1
inactive: KM-20L2 > 100 µM | OVCAR-4 > 100 µM | SF-268 > 100 µM | K562 > 100 µM | CCRF-CEM > 100 µM | HCT-116 > 100 µM | NCI-H460 > 100 µM | HT-29 > 100 µM | SN12C > 100 µM | UACC-257 > 100 µM | OVCAR-3 > 100 µM | SK-MEL-2 > 100 µM | OVCAR-5 > 100 µM | IGROV-1 > 100 µM
> 100 µM: HCT-15

NCCn1ccc(NC(c2ccccc2)(c2ccccc2)c2ccccc2)nc1=O
inactive: KM-20L2 15.7 µM | SR 19.4 µM | OVCAR-4 36.3 µM | SF-268 16.3 µM | K562 20.1 µM | HCT-116 18.2 µM | EKVX 21.3 µM | NCI-H460 20.3 µM | HT-29 16.9 µM | SN12C 20.3 µM | UACC-257 19.5 µM | OVCAR-3 25.8 µM | SK-MEL-2 18.7 µM | OVCAR-5 > 100 µM | IGROV-1 40.7 µM
> 100 µM: HCT-15

CCOC(=O)C1S/C(=N\c2ccccc2)N=C1C (stereo not drawn)
55.5 µM: HCT-15
inactive: KM-20L2 55.7 µM | SR 45.3 µM | OVCAR-4 68.7 µM | SF-268 60.1 µM | K562 40.7 µM | HCT-116 > 100 µM | EKVX 64.1 µM | NCI-H460 79.1 µM | HT-29 30.3 µM | SN12C > 100 µM | UACC-257 > 100 µM | OVCAR-3 97.1 µM | SK-MEL-2 > 100 µM | OVCAR-5 96.8 µM | IGROV-1 > 100 µM

COc1ccc(/C=N/NC(=O)CSc2nc(-c3ccccc3)c(-c3ccccc3)[nH]2)cc1OC
26.9 µM: HCT-15
inactive: KM-20L2 19.1 µM | OVCAR-4 31.3 µM | SF-268 50 µM | CCRF-CEM 34.7 µM | HCT-116 34.5 µM | EKVX 31 µM | NCI-H460 28.6 µM | HT-29 29.8 µM | SN12C 30.1 µM | UACC-257 27.1 µM | OVCAR-3 17.1 µM | SK-MEL-2 20.7 µM | OVCAR-5 22 µM | IGROV-1 28.8 µM

O/N=C\C(=N/O)Nc1ccc(Cc2ccc(NC(/C=N\O)=N/O)cc2)cc1
75.3 µM: HCT-15
inactive: KM-20L2 44.3 µM | OVCAR-4 57.9 µM | SF-268 > 100 µM | K562 37.9 µM | CCRF-CEM 45.4 µM | HCT-116 79.4 µM | EKVX 25.4 µM | NCI-H460 34.8 µM | HT-29 60.5 µM | SN12C 35.3 µM | UACC-257 56.1 µM | OVCAR-3 42.3 µM | SK-MEL-2 50.7 µM | OVCAR-5 89.9 µM | IGROV-1 34.4 µM

O=[PH](O)c1ccccn1
inactive: KM-20L2 > 100 µM | OVCAR-4 > 100 µM | SF-268 > 100 µM | K562 > 100 µM | CCRF-CEM > 100 µM | HCT-116 > 100 µM | EKVX > 100 µM | NCI-H460 > 100 µM | HT-29 > 100 µM | SN12C > 100 µM | UACC-257 > 100 µM | OVCAR-3 > 100 µM | OVCAR-5 > 100 µM | IGROV-1 > 100 µM
> 100 µM: HCT-15

CSc1c(C#N)c(O)n(-c2ccc(C)cc2)c(=O)c1C(C)=O
inactive: SR > 100 µM | OVCAR-4 > 100 µM | SF-268 > 100 µM | K562 > 100 µM | CCRF-CEM > 100 µM | HCT-116 > 100 µM | EKVX > 100 µM | NCI-H460 > 100 µM | HT-29 > 100 µM | SN12C > 100 µM | UACC-257 > 100 µM | DU-145 > 100 µM | OVCAR-3 > 100 µM | Hs-578T > 100 µM | NCI/ADR-RES > 100 µM | SK-MEL-2 > 100 µM | OVCAR-5 42.8 µM | IGROV-1 > 100 µM
> 100 µM: HCT-15

CCC1CCC2C3CC=C4CC(OC(C)=O)C(N)CC4(C)C3CCC12C (stereo not drawn)
3.3 µM: HCT-15
inactive: SR 2.25 µM | OVCAR-4 4.94 µM | SF-268 2.71 µM | K562 2.05 µM | CCRF-CEM 2.47 µM | HCT-116 2.46 µM | EKVX 4.62 µM | NCI-H460 1.87 µM | HT-29 2.36 µM | SN12C 5.3 µM | UACC-257 2.17 µM | DU-145 2.92 µM | OVCAR-3 5.85 µM | Hs-578T 1.93 µM | NCI/ADR-RES 5.21 µM | SK-MEL-2 3.97 µM | OVCAR-5 6.21 µM | IGROV-1 6.4 µM

O=C(OCc1ccccc1)N1N=NC2C3CC(OCc4ccccc4)(OCc4ccccc4)C(O3)C21 (stereo not drawn)
inactive: KM-20L2 40.7 µM | OVCAR-4 22.2 µM | SF-268 22.4 µM | K562 11 µM | CCRF-CEM 21.3 µM | NCI-H460 39.9 µM | HT-29 26 µM | SN12C 41.9 µM | UACC-257 14 µM | OVCAR-3 16.6 µM | SK-MEL-2 16.3 µM | OVCAR-5 26 µM | IGROV-1 49.5 µM
34 µM: HCT-15

CCN1CCC(O)(/C=C/c2ccc(C)cc2C)C(C(=O)/C=C/c2ccc(C)cc2C)C1 (stereo not drawn)
1.93 µM: HCT-15
inactive: SR 2.37 µM | OVCAR-4 2.99 µM | SF-268 2.4 µM | K562 3.13 µM | CCRF-CEM 1.82 µM | HCT-116 2.22 µM | EKVX 2.74 µM | NCI-H460 1.35 µM | HT-29 2.16 µM | SN12C 2.72 µM | UACC-257 4.99 µM | DU-145 4.59 µM | OVCAR-3 2.53 µM | Hs-578T 2.09 µM | NCI/ADR-RES 2.46 µM | SK-MEL-2 4.26 µM | OVCAR-5 4.29 µM | IGROV-1 2.89 µM

Cc1cc(NS(=O)(=O)c2ccc(Nc3c4ccccc4nc4c(C(=O)N5CCN(CCOS(C)(=O)=O)CC5)cccc34)cc2)no1
inactive: KM-20L2 > 100 µM | OVCAR-4 > 100 µM | SF-268 > 100 µM | K562 37.5 µM | CCRF-CEM 43.4 µM | HCT-116 > 100 µM | NCI-H460 > 100 µM | HT-29 > 100 µM | SN12C > 100 µM | UACC-257 > 100 µM | OVCAR-3 > 100 µM | SK-MEL-2 > 100 µM | OVCAR-5 > 100 µM | IGROV-1 > 100 µM
> 100 µM: HCT-15

CC[C@H]1C=CCC[C@@]2(C[C@@H]3CC[C@@H]4[C@H](C(=O)OCCCCCCCCCCCCCCCC(=O)N(CCCN)CCCCN)[C@]5(CCC[C@@H](C)O5)NC(=[N+]34)N2)O1
0.0479 µM: HCT-15
active: SR 0.0281 µM | SF-268 0.0214 µM | K562 0.0299 µM | CCRF-CEM 0.0151 µM | HCT-116 0.0275 µM | EKVX 0.11 µM | NCI-H460 0.0301 µM | HT-29 0.0364 µM | SN12C 0.0753 µM | UACC-257 0.0171 µM | DU-145 0.348 µM | OVCAR-3 0.0738 µM | Hs-578T 0.0875 µM | NCI/ADR-RES 0.0944 µM | SK-MEL-2 0.0259 µM | OVCAR-5 0.108 µM | IGROV-1 0.0695 µM
inactive: OVCAR-4 1.34 µM
